In the supplement of paper PMC8967900:

Tests used:
Experiment in all cases: selective drug sensitivity score (sDSS, relative to normal bone marrow) (sDSS (score)); higher = more potent and effective on the cell line relative to normal bone marrow cells
Conditions in all cases: 72 h
[1] = system: MN-60
[2] = system: TMD5
[3] = system: HAL-01
[4] = system: MOLT-4
[5] = system: HPB-ALL
[6] = system: REH
[7] = system: MOLT-14
[8] = system: KARPAS-45
[9] = system: DND-41
[10] = system: KASUMI-10
[11] = system: LC4-1
[12] = system: RPMI-8402
[13] = system: MHH-CALL-4
[14] = system: CCRF-CEM
[15] = system: NALM-6
[16] = system: P30-OHKUBO
[17] = system: NALL-1
[18] = system: KOPN-8
[19] = system: ALL-PO
[20] = system: COG-LL-332h
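Further: ALL cell lines in 384-well plates, five doses spanning 10,000-fold, each plate scaled between vehicle and 100 µmol/L benzalkonium chloride controls, sDSS an adapted area-under-curve metric.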

Structure (SMILES)	selective drug sensitivity score [1]	selective drug sensitivity score [2]	selective drug sensitivity score [3]	selective drug sensitivity score [4]	selective drug sensitivity score [5]	selective drug sensitivity score [6]	selective drug sensitivity score [7]	selective drug sensitivity score [8]	selective drug sensitivity score [9]	selective drug sensitivity score [10]	selective drug sensitivity score [11]	selective drug sensitivity score [12]	selective drug sensitivity score [13]	selective drug sensitivity score [14]	selective drug sensitivity score [15]	selective drug sensitivity score [16]	selective drug sensitivity score [17]	selective drug sensitivity score [18]	selective drug sensitivity score [19]	selective drug sensitivity score [20]
COc1ccc(-c2ccc3ncc4c(c3c2)n(-c2ccc(N3CCNCC3)c(C(F)(F)F)c2)c(=O)n4C)cn1 [NVP-BGT226] (top concentration 1000 nM)	5.72	-5.58	2.22	5.42	-0.18	8.22	1.52	3.42	2.12	-0.18	2.22	4.42	2.32	10.1	4.32	12.2	-2.88	9.52	6.72	5.02
CC(=O)N(O)CCCCCNC(=O)CCC(=O)N(O)CCCCCNC(=O)CCC(=O)N(O)CCCCCN [Deferoxamine] (top concentration 10000 nM)	5.16	-0.24	8.46	3.56	4.06	2.46	8.76	5.16	5.16	3.06	1.76	2.06	-0.84	6.86	5.06	0.76	-0.74	10.4	2.56	10.4
CO[C@H]1C(=O)[C@]2(C)[C@@H](OC)C[C@H]3OC[C@@]3(OC(C)=O)[C@H]2[C@H](OC(=O)c2ccccc2)[C@]2(O)C[C@H](OC(=O)[C@H](O)[C@@H](NC(=O)OC(C)(C)C)c3ccccc3)C(C)=C1C2(C)C [Cabazitaxel] (top concentration 1000 nM)	-5.32	2.88	11.7	18.4	11.6	17.9	22.7	18.9	-4.32	12.4	22.4	15.5	3.58	20.5	15.9	20.3	11.4	17.9	15.1	22.1
C[C@@H](Oc1cc(-n2cnc3ccc(CN4CCN(C)CC4)cc32)sc1C(N)=O)c1ccccc1C(F)(F)F (top concentration 10000 nM)	3.72	11.8	16.6	22.8	11.6	21.8	24.8	28.8	13.2	11	22.6	28.8	-3.18	22.7	15.8	21.7	5.82	19.9	22	20.5
Cc1cccc(CC(=O)N2CCc3c2ccc(-c2cn(C)c4ncnc(N)c24)c3F)n1 (top concentration 2500 nM)	1.82	-0.68	2.92	3.22	-0.68	9.62	1.22	1.32	-0.68	-0.68	4.72	5.22	4.22	-0.08	4.32	3.52	-0.68	-0.68	0.22	0.32
C1=N/C2=N/c3ccc(OCCN4CCCC4)c(c3)COC/C=C/COCc3cccc(c3)C(=C1)N2 [Pacritinib] (top concentration 10000 nM)	-9.6	-9.2	-0.6	-7.3	-5.7	-3.2	-4	-2.9	-4.7	2.2	-5.6	-5.7	-5.3	-6.1	-2.3	1.2	-8.4	-4.7	-0.4	-4.1
C=CCn1c(=O)c2cnc(Nc3ccc(N4CCN(C)CC4)cc3)nc2n1-c1cccc(C(C)(C)O)n1 [AZD1775] (top concentration 10000 nM)	2.74	4.94	8.34	14.6	9.44	13.5	14.3	14.9	11.5	7.84	13.7	13.9	1.94	14.2	11	13.7	4.84	14.1	7.04	11
CCOC(=O)CCNc1cc(N2CCc3ccccc3CC2)nc(-c2ccccn2)n1 [GSK-J4] (top concentration 100000 nM)	-6.58	-9.38	7.72	-7.98	1.62	-7.88	-3.98	-7.28	-6.88	-11.8	-9.58	-8.18	-8.98	-6.68	-9.98	-8.18	-9.18	-8.88	-7.18	-7.08
C[C@@H]1CN(CC(=O)Nc2ccc3c(c2)Cc2cccc(-c4cc(=O)cc(N5CCOCC5)o4)c2S3)C[C@H](C)O1 (top concentration 25000 nM)	-2.18	-2.18	-0.18	-0.08	2.22	6.12	0.32	1.72	4.02	-2.18	4.12	1.82	0.12	2.62	2.92	3.42	-2.18	5.72	2.02	2.02
CNC(=O)c1ccccc1Nc1nc(Nc2ccc3c(c2OC)CCC[C@H](N2CCN(CCO)CC2)C3)ncc1Cl (top concentration 5000 nM)	-2.24	-2.74	0.46	-0.74	1.66	-2.24	1.56	1.26	0.06	5.66	2.96	-0.74	-0.94	-2.54	-1.04	6.36	-3.34	0.76	5.76	-1.54
CCNC(=O)c1noc(-c2cc(C(C)C)c(O)cc2O)c1-c1ccc(CN2CCOCC2)cc1 [Luminespib] (top concentration 1000 nM)	-4.6	-6.3	-3.7	-1.1	-2.5	-1.5	-0.6	-2.7	-2	4.4	-1.4	-3.8	1.7	-0.5	-0.5	-3.9	-5.8	6.7	4.6	7.1
NC(=O)Nc1cc(-c2cccc(F)c2)sc1C(=O)N[C@H]1CCCNC1 [AZD7762] (top concentration 1000 nM)	-4.9	-1.1	3.5	-1.3	-1.5	-1.1	0.6	1.8	2.3	12.9	-0.5	0	0.3	-0.1	0.6	3.3	-2.1	3.4	9.2	-0.8
Cc1c(N)nc([C@H](CC(N)=O)NC[C@H](N)C(N)=O)nc1C(=O)N[C@H](C(=O)N[C@H](C)[C@@H](O)[C@H](C)C(=O)N[C@H](C(=O)NCCc1nc(-c2nc(C(=O)NCCC[S+](C)C)cs2)cs1)[C@@H](C)O)[C@@H](O[C@@H]1O[C@@H](CO)[C@@H](O)[C@H](O)[C@@H]1O[C@H]1O[C@H](CO)[C@@H](O)[C@H](OC(N)=O)[C@@H]1O)c1c[nH]cn1 [Bleomycin] (top concentration 10000 nM)	-1.86	7.34	8.44	2.24	-1.86	9.44	0.94	1.94	1.14	1.14	0.54	-1.36	4.54	1.04	5.74	4.44	-1.56	7.34	-1.76	8.04
CC(C)C[C@H](NC(=O)[C@H](CCc1ccccc1)NC(=O)CN1CCOCC1)C(=O)N[C@@H](Cc1ccccc1)C(=O)N[C@@H](CC(C)C)C(=O)[C@@]1(C)CO1 [Carfilzomib] (top concentration 1000 nM)	-7.34	0.16	-8.84	0.86	3.96	3.16	1.16	0.66	5.36	0.36	2.36	-2.74	1.56	4.86	1.06	3.46	0.56	1.46	4.76	5.16
CNC(=O)c1ccccc1Nc1cc(Nc2ccc(N3CCOCC3)cc2OC)ncc1C(F)(F)F [VS-4718] (top concentration 10000 nM)	-3.4	6.8	8.7	1.9	1.7	-1.1	1.1	7.1	-0.9	11.2	-3	8.8	6.4	2	0.4	0.4	8.7	-3.1	14	-0.3
Cc1sc2c(c1C)C(c1ccc(Cl)cc1)=N[C@@H](CC(=O)OC(C)(C)C)c1nnc(C)n1-2 [JQ1] (top concentration 10000 nM)	6.62	-3.08	6.12	-4.28	1.32	-3.58	-0.58	9.32	2.52	7.22	5.02	3.12	8.52	1.32	4.32	8.72	0.42	11.7	4.62	-3.08
NC(=O)NO [Hydroxyurea] (top concentration 1000000 nM)	-0.04	-3.24	5.26	1.56	-1.24	4.06	9.16	2.86	1.16	1.86	5.26	3.46	-1.04	3.96	2.56	7.66	-3.74	11.9	-4.54	12.5
